Measurements published in US20150330990A1, “METHOD OF SCREENING CANDIDATE BIOCHEMICAL ENTITIES TARGETING A TARGET BIOCHEMICAL ENTITY” (BIODESY, INC., priority 2013, published 2015).
Where “and” joins values, the source holds several entries; their conditions need not be identical. Identical values can stand only once. One block for each compound: values may come before it.

What was measured:
alpha-synuclein [1] = target: T1, alpha-synuclein (Homo sapiens, UniProt P37840, A90C); settings: 1 mM Dopamine, 50 mM Hepes pH 7.4, 100 mM NaCl
Description: An alanine to cysteine mutation (A90C) was introduced into alpha-synuclein to produce a site-specific peptide for dye conjugation, as native alpha-synuclein lacks cysteine residues. A90C alpha-synuclein was then labeled with PyMPO-Maleimide using standard techniques and the location of the modified peptide was verified by mass spectroscopy to be cysteine 90.
For SHG experiments performed with alpha-synuclein, a stock solution of PyMPO-Maleimide-labeled A90C alpha-synuclein was diluted to a final concentration of 5 μM in 50 mM Hepes, pH 7.4, 100 mM NaCl. The 5 μM protein solution was then immobilized onto an aldehyde derivatized glass slide by incubating for one hour at room temperature. Control (buffer) and compound injections were performed in 50 mM Hepes, pH 7.4, 100 mM NaCl.
The experiments were performed with an instrument comprising a mode-locked Ti:sapphire oscillator which provides the fundamental beam necessary to generate the second-harmonic signal (high peak power intensity). We used a Mira 900 Ti:Sapphire ultrafast oscillator (Coherent Inc.) pumped by a Millenia V DPSS laser (Spectra-Physics Corp.). The Ti:sapphire oscillator produced ˜0.7 W of fundamental power at 780 nm with pulse duration of ˜150 fs at 80 MHz. […]

Raf kinase = assay: SHG signature on Raf kinase surface array (Example 4); assay type: binding; settings: positive direction
Description: A library comprising 200 distinct compounds and Sorafenib, each with a molecular weight between 400 and 500 g/mol, three aromatic groups, and 2-5 nitrogen atoms, is evaluated for the structure-activity relationship using a surface array comprising more than 200 copies of a Raf kinase. The conformation state of the Raf kinase is measured by […] (SHG) methods described in the present application to establish a baseline in the absence of any compound. Each compound in the library is then contacted with a single copy of the Raf kinase on the array. The conformational state of each copy of the single kinase target is measured by SHG methods. The SHG signature for each compound is determined based on the change in conformational state upon contacting the Raf kinase. Sorafenib has a SHG signature with a 30% shift (i.e. magnitude) in the positive direction. The compounds are grouped, based on their SHG signature and common structural parameters, to generate a structure-activity relationship (SAR) catalog. For example, the 8 compounds that have a signature within 10% in magnitude to that of Sorafenib are cataloged as “molecular weight between 400 and 500 g/mol, three aromatic groups, 2-5 nitrogen atoms, and a signature with +27% to +33% magnitude”. […]

alpha-synuclein [2] = target: T1, alpha-synuclein; assay: SHG conformational change assay, compound added alone; assay type: binding; design: made in house; settings: for EC50: 5 μM alpha-synuclein, GraphPad non-linear fit, read-out: EC50 (SHG dose-response curve; binding affinity)
Text: A single-site cysteine mutant […]) of the alpha-synuclein was constructed and labeled with PyMPO-maleimide (Invitrogen), an SH-active probe that we have used in previous studies ([…], Journal of Chemical Physics 125(7), 2006; […], Physical Chemistry Chemical Physics 9(42):5704-5711, 2007). Mutant […]) protein was previously determined to function like wild-type (Bertoncini C W, et al., Proceedings of the National Academy of Sciences of the United States of America 102(5):1430-1435, 2005). The label was coupled to the protein according to the manufacturer's instructions and purified by gel filtration. Artemis SHG Screening Instrumentation: The Artemis instrument is comprised of a mode-locked Ti:sapphire oscillator that provides the fundamental beam necessary to generate second-harmonic light (high peak power intensity). […] Each of the 16 wells is read in sequence by translating the stage via the control software. Artemis was outfitted with a single-channel liquid injector (Cavro) which delivered a liquid bolus. The liquid bolus volume and delivery speed could be varied. In the experiments described here, we used a volume of 10 μl delivered in 1 second. The measured parameters include the read time before and after ligand injection, integration time, stage temperature (kept at room temperature for all experiments here), and the stage position, relative to the line of the fundamental beam. A custom silicone template with adhesive backing (Arrowleaf Research) was applied to commercially available Xenobind glass microscope slides (Xenopore) using a custom machined assembly jig to define 16 wells of diameter 3 mm (volume 15 μl) on each slide. The template defining the wells is registered to a standard 96-well plate. […] After allowing the protein to absorb, the slide was placed on the […] platform and each well was scanned via SHG to determine the amount of protein in each well. Unbound protein was then removed by washing five times with 20 μL PBS. A post-wash well scan was then performed to determine how much protein was bound to the slide surface. To determine the dose-response curves of Spermine (Sigma), Spermidine (Sigma), and COMPOUND A, serial dilutions of each compound were used to prepare stock solutions. Each compound was added to a well to produce the indicated final concentration. […] For COMPOUND A the concentration range was 5 μ[…], and 1 mM. The concentrations were then converted to the log scale and the data plotted in GraphPad Prism V5 using the non-linear regression fit for log(agonist) vs response with variable slope. […] The EC50 values were calculated by the software. Control experiments were performed on each compound to empirically determine the time frame required for each compound to produce a maximal response (Tmax). […] The resulting value was reported as the percent change in SHG intensity due to compound addition.

alpha-synuclein [3] = target: T1, alpha-synuclein; assay: SHG competition assays (spermine-spermidine, spermine-COMPOUND A, analog-spermine, library screen); assay type: binding; design: made in house; settings: 3 mM Spermidine added after 25 minutes incubation with 1 mM Spermine
Description: The Maybridge Ro3 fragment library contains over 1,000 pharmacophoric compounds of 95% purity solubilized at 50 mM in DMSO. For fragment screening experiments, a single compound from the library was diluted in PBS and placed in each well at a final concentration of 1 mM ([…]).
After 25 minutes, 3 mM spermidine was added to each well and the resulting change in SHG intensity was measured.
To calculate the percent change, the SHG intensity as measured just prior to injection (T0) was subtracted from the SHG intensity at Tmax and then divided by T0 according to the following equation: SHG %=(ISHG@Tmax−ISHG@T0)/ISHG@T0.
A control buffer injection was used to determine the threshold for SHG intensity change and was calculated in a similar manner to above. The net SHG intensity change for each compound was then reported by subtracting the buffer threshold value from the SHG intensity value produced by compound addition. The resulting value was reported as the percent change in SHG intensity due to compound addition.
Each well was loaded with 5 μM alpha-synuclein and pre-incubated with one fragment compound from the Maybridge Ro3 library for 30 minutes at 1 mM in assay buffer. […] As shown in FIG. 2C (right trace), addition of 1 mM COMPOUND A to alpha-synuclein changes the SHG baseline signal immediately.

alpha-synuclein [4] = target: T2, alpha-synuclein (Homo sapiens, UniProt P37840); settings: cited from earlier work
alpha-synuclein [5] = target: T2, alpha-synuclein; assay: Thioflavin T assay / fibrillization of alpha-synuclein in vitro; assay type: biochemical

average percent change in the SHG intensity of alpha-synuclein (alpha-synuclein [1]): 3.375±1.13%
Compound: NCCc1ccc(O)c(O)c1 [Dopamine]

EC50 (alpha-synuclein [2]): 840 µM and 790 µM
Compound Only (% Shift/% Change) (alpha-synuclein [2]; 1 mM): 30.23 ± 3.69%
change in SHG intensity (alpha-synuclein [2]; 1 mM compound added alone to 5 μM alpha-synuclein): 25.58±4.33% and 30.23±3.69%
change in the SHG intensity (alpha-synuclein [2]; 5 mM compound added alone to 5 μM alpha-synuclein): 36.26±4.97% and 37.44±6.40%
increase of the rate of aggregation of alpha-synuclein in vitro (alpha-synuclein [5]): roughly two-fold
Compound: NCCCNCCCCNCCCN [Spermine]
factor of increase of aggregation rate in vitro (alpha-synuclein [4]): 10^5

change in the SHG intensity of alpha-synuclein (alpha-synuclein [2]; treatment with 10 μM PcTS): −79.6±2.7%
Compound: Phthalocyanine Tetrasulfonate [PcTs]

More lines, now with the values behind:

Compound: CNC(=O)c1cc(Oc2ccc(NC(=O)Nc3ccc(Cl)c(C(F)(F)F)c3)cc2)ccn1 [Sorafenib]
SHG signature shift (magnitude) (Raf kinase): 30%

Compound: NCCCCNCCCN [Spermidine]
EC50 (alpha-synuclein [2]): 1110 µM
increase in SHG intensity (alpha-synuclein [2]; 3 mM compound added alone): 19.88±2.37%
logEC50 (alpha-synuclein [2]; SHG dose-response curve): −2.95±0.19
change in SHG intensity (alpha-synuclein [3]): 5.1±0.81%
